Measurements taken from patent US20090320869A1, “METHODS FOR PREVENTING REVERSION OF RELAXED KERATINOUS FIBERS AND FOR RELAXING KERATINOUS FIBERS” (L'Oreal, S.A.,, priority 2003, published 2009).

How the values were obtained:
Design in all cases: species or system human
[1] = Effect of D-xylose concentration on hair relaxed with a commercial alkali relaxer (Example 4); conditions: for % Reversion / % Straightening: flat iron 1 min 175° C., 1 h at 100% RH
Method: [formula] The percent reversion (“% reversion”)=100%−(% straightening) Virgin African-American (kinky) hair was processed with an alkali relaxer as follows. The commercial cream relaxer was applied to a swatch of hair for 10 min at room temperature. Next, the cream was washed off, the swatch was profusely rinsed with tepid water, and the treatment solution was applied for 5 min. The treatment solutions included water; 1% D-xylose; 3% D-xylose; and 5% D-xylose. Next, the swatch was briefly rinsed to remove an excess of the treatment solution from the hair surface, blow-dried, and heat was applied in the form of a flat iron for 1 min (175° C.). The heat-treated swatch was rinsed with tepid water, air-dried at 50% RH (25° C.), and maintained for 1 h at 100% RH (25° C.). The percent hair straightening was determined as in Example 1.

[2] = Percent straightening / reversion of hair relaxed with 2.5% sodium hydroxide, D-xylose post-treatment and heat (Example 1); conditions: for % Reversion / % Straightening: flat iron five strokes 130° C., 24 at 90% RH (25° C.)
Method: Virgin African-American (kinky) hair was processed and 2.5% sodium hydroxide for 20 min at room temperature. Next, the sodium hydroxide solution was washed off, the swatch was profusely rinsed with tepid water, and the treatment solution was applied for 5 min at room temperature. The treatment solutions included: water; 1% D-xylose; and 5% D-xylose. Next, the swatch was briefly rinsed to remove an excess of the treatment solution from the hair surface, blow-dried, and heat was applied in the form of five strokes with a flat iron (130° C.). The heat-treated swatch was rinsed with tepid water, air-dried at 50% RH (25° C.), and maintained for 24 at 90% RH (25° C.). The percent hair straightening (“% straightening”) was determined as follows: [formula] The percent reversion (“% reversion”)=100%−(% straightening)

[3] = Effect of D-xylose on hair relaxed with a commercial thioglycolate relaxer (Example 5); conditions: for % Reversion / % Straightening: flat iron 30 sec 175° C., 1 h at 100% RH
Method: [formula] The percent reversion (“% reversion”)=100%−(% straightening) Virgin African-American (kinky) hair was processed with a commercial thioglycolate cream relaxer as follows. The thioglycolate cream relaxer was applied to a swatch of kinky hair for 15 min at room temperature (reduced hair). Next, the thioglycolate cream was washed off, the swatch was profusely rinsed with tepid water, and a hydrogen peroxide cream was applied for 5 min. The treatment solutions included: water and 5% D-xylose. The treatment solutions were applied either between the rinsing of the thioglycolate cream relaxer and the application of the hydrogen peroxide cream, or after the application of the hydrogen peroxide cream, respectively. The treatment solutions was applied for 5 min at room temperature. Next, the swatch was briefly rinsed to remove an excess of the treatment solution from the hair surface, blow-dried, and heat was applied in the form of a flat iron for 30 sec (175° C.). The heat-treated swatch was rinsed with tepid water, air-dried at 50% RH (25° C.), and maintained for 1 h at 100% RH (25° C.). The percent hair straightening was determined as in Example 1.

[4] = Effect of pH of D-xylose solutions on hair relaxed with 2.0% sodium hydroxide (Example 3); conditions: for % Reversion / % Straightening: 2.0% NaOH + 5% D-Xylose, flat iron 1 min 130° C., 24 h at 90% RH
Method: [formula] The percent reversion (“% reversion”)=100%−(% straightening) Virgin African-American (kinky) hair was processed with 2.0% sodium hydroxide for 20 min at room. Next, the sodium hydroxide solution was washed off, the swatch was profusely rinsed with tepid water, and the treatment solution was applied for 10 min at 45° C. The treatment solutions included: buffer solution, pH 2.0; buffer solution, pH 6.0; buffer solution, pH 10.0; 5% D-xylose, pH 2.0; 5% D-xylose, pH 6.5; and 5% D-xylose, pH 10. The solutions were buffered using phosphoric acid and sodium hydroxide. Next, the swatch was briefly rinsed to remove an excess of the treatment solution from the hair surface, blow-dried, and heat was applied in the form of a flat iron for 1 min. (130° C.). The heat-treated swatch was rinsed with tepid water, air-dried at 50% RH (25° C.), and maintained for 24 h at 90% RH (25° C.). The percent hair straightening was determined as in Example 1.

[5] = Percent straightening / reversion of hair relaxed with various concentrations of sodium hydroxide, D-xylose post-treatment and heat (Example 2); conditions: for % Reversion / % Straightening: flat iron 1 min 130° C., 24 h at 90% RH
Method: [formula] The percent reversion (“% reversion”)=100%−(% straightening) Virgin African-American (kinky) hair was processed with different concentrations of sodium hydroxide for 20 min at room temperature: 1.0%, 1.5%, 2.0%, and 2.5% NaOH, respectively. Next, the sodium hydroxide solution was washed off, the swatch was profusely rinsed with tepid water, and the treatment solution was applied for 5 min at room temperature. The treatment solutions included water and 5% D-xylose. Next, the swatch was briefly rinsed to remove an excess of the treatment solution from the hair surface, blow-dried, and heat was applied in the form of a flat iron for 1 min (130° C.). The heat-treated swatch was rinsed with tepid water, air-dried at 50% RH (25° C.), and maintained for 24 h at 90% RH (25° C.). The percent hair straightening was determined as in Example 1.

[6] = commercial alkali cream relaxer 10 min + 1% D-Xylose 5 min
[7] = commercial alkali cream relaxer 10 min + 3% D-Xylose 5 min
[8] = commercial alkali cream relaxer 10 min + 5% D-Xylose 5 min
[9] = 2.5% NaOH 20 min + 1% D-Xylose 5 min
[10] = 2.5% NaOH 20 min + 5% D-Xylose 5 min
[11] = thioglycolate reduced hair + 5% D-Xylose, then hydrogen peroxide
[12] = thioglycolate reduced hair + hydrogen peroxide, then 5% D-Xylose

O=C[C@H](O)[C@@H](O)[C@H](O)CO [D-Xylose, D-xylose]
% Reversion [1, 6]: 30.9%
% Straightening [1, 6]: 69.1%
% Reversion [1, 7]: 24.0%
% Straightening [1, 7]: 76.0%
% Reversion [1, 8]: 22.0%
% Straightening [1, 8]: 78.0%
reversion of relaxed hair (in words) ([1]; post-treatment with various concentrations of D-xylose vs water, commercial alkali relaxer): prevented reversion of the relaxed hair
% Reversion [2, 9]: 7.2%
% Straightening [2, 9]: 92.8%
% Reversion [2, 10]: 0%
% Straightening [2, 10]: 100%
curl reversion in relaxed kinky hair (in words) ([2]; post-treatment with a D-xylose solution, hair relaxed with 2.5% NaOH): prevented curl reversion
reversion of relaxed hair (in words) ([3]; post-treatment with a D-xylose solution, thioglycolate hair relaxer): prevented reversion
% Reversion [3, 11]: 0.00%
% Straightening [3, 11]: 100%
% Reversion [3, 12]: 14.0%
% Straightening [3, 12]: 86.0%
% Reversion ([4]; pH 2.0, 10 min at 45° C.): 20.0%
% Straightening ([4]; pH 2.0, 10 min at 45° C.): 80.0%
% Reversion ([4]; pH 6.5, 10 min at 45° C.): 10.0%
% Straightening ([4]; pH 6.5, 10 min at 45° C.): 90.0%
% Reversion ([4]; pH 10.0, 10 min at 45° C.): 0.00%
% Straightening ([4]; pH 10.0, 10 min at 45° C.): 100%
reversion of relaxed hair (in words) ([4]; post-treatment with a D-Xylose solution vs buffer solution at various pH values): prevented reversion of the relaxed hair better than post-treatment with a buffer solution
% Reversion ([5]; 1.0% NaOH + 5% D-Xylose): 42.9%
% Straightening ([5]; 1.0% NaOH + 5% D-Xylose): 57.1%
% Reversion ([5]; 1.5% NaOH + 5% D-Xylose): 21.4%
% Straightening ([5]; 1.5% NaOH + 5% D-Xylose): 78.6%
% Reversion ([5]; 2.0% NaOH + 5% D-Xylose): 0%
% Straightening ([5]; 2.0% NaOH + 5% D-Xylose): 100%
% Reversion ([5]; 2.5% NaOH + 5% D-Xylose): 0%
% Straightening ([5]; 2.5% NaOH + 5% D-Xylose): 100%
curl reversion in relaxed kinky hair (in words) ([5]; post-treatment with a D-xylose solution vs water, 1.0-2.5% NaOH): prevented curl reversion in the relaxed kinky hair better than post-treatment with water
